Tests used:
[1] = tested on: E. coli ATCC 078; assay type: cell-based, Escherichia coli; conditions: Table 3, recombinant vs synthetic LG; mean ± SD of three independent experiments
Description: (§1) All experiments were conducted at least three different times.

[2] = tested on: E. coli ATCC 25922; assay type: cell-based, Escherichia coli; conditions: Table 3, recombinant vs synthetic LG; mean ± SD of three independent experiments
Description: as §1

[3] = tested on: S. Typhimurium ATCC 14028; assay type: cell-based, Salmonella Typhimurium; conditions: Table 3, recombinant vs synthetic LG; mean ± SD of three independent experiments
Description: as §1

[4] = tested on: S. Typhimurium C 7731; assay type: cell-based, Salmonella Typhimurium; conditions: Table 3, recombinant vs synthetic LG; mean ± SD of three independent experiments
Description: as §1

[5] = tested on: P. aeruginosa ATCC 27853; assay type: cell-based, Pseudomonas aeruginosa; conditions: Table 3, recombinant vs synthetic LG; mean ± SD of three independent experiments
Description: as §1

[6] = tested on: S. aureus ATCC 25923; assay type: cell-based, Staphylococcus aureus; conditions: Table 3, recombinant vs synthetic LG; mean ± SD of three independent experiments
Description: as §1

[7] = tested on: S. aureus ATCC 29213; assay type: cell-based, Staphylococcus aureus; conditions: Table 3, recombinant vs synthetic LG; mean ± SD of three independent experiments
Description: as §1

[8] = tested on: S. epidermidis ATCC 12228; assay type: cell-based, Staphylococcus epidermidis; conditions: Table 3, recombinant vs synthetic LG; mean ± SD of three independent experiments
Description: as §1

[9] = tested on: S. faecalis ATCC 29212; assay type: cell-based, Streptococcus faecalis; conditions: Table 3, recombinant vs synthetic LG; mean ± SD of three independent experiments
Description: as §1

[10] = tested on: E. coli ATCC 25922; assay type: cell-based, Escherichia coli
Description: as §1
The salt ions were added to the BSA solution and configured into different final concentrations of salt ions (150 mM NaCl, 4.5 mM KCl, 6 µM NH4Cl, 8 µM ZnCl2, 1 mM MgCl2, 2 mM CaCl2, and 4 µM FeCl3) solutions. The method discribed as above was referred to determine the MIC value of rLG against E. coli ATCC 25922 in the presence of different concentrations of salt ions.

[11] = tested on: human red blood cells; test: Hemolytic activity assay; assay type: cell-based; conditions: at the highest peptide concentration (128 μM); human red blood cells, 37 °C 1 h; 0.1% Triton X-100 = 100%
Description: The collected blood of type B from healthy donor was centrifuged at 1000×g for 5 min to collect red blood cells. The red blood cells were then washed and resuspended in 10 mM PBS (pH 7.4). Fifty microliters of diluted red blood cells and an equal volume of peptide solution (2–128 µM) were incubated in a 96-well plate at 37 °C for 1 h. The red blood cell suspension treated with 0.1% Triton X-100 was used as a positive control (100% hemolysis), and untreated blood cell suspension was used as a negative control. The 96-well plate was centrifuged at 1000×g for 5 min at 4 °C, and then the supernatant was transferred to a new 96-well plate. The absorbance at OD570 was measured with a microplate reader.

[12] = tested on: E. coli ATCC 25922; test: Cell wall (outer membrane) permeabilization, NPN uptake; assay type: cell-based, Escherichia coli; conditions: at low concentrations (1, 2, and 4 µM); compared with melittin
Description: The cell wall permeability was determined by monitoring the fluorescence release of the fluorescent dye NPN (Sigma, USA). E. coli ATCC 25922 (OD600 = 0.2) and NPN (10 µM) were incubated in 5 mM HEPES buffer (containing 5 mM glucose, pH 7.4) for 30 min. Then, 100 µL of peptides (0.5–32 µM) and an equal volume of bacteria were added to a 96-well plate. An F-4500 fluorescence spectrophotometer (Hitachi, Japan) was used to detect the fluorescence intensity of different wells at a 350 nm excitation wavelength and 420 nm emission wavelength. The peptide-free and polymyxin B-containing fluorescence values were set as negative and positive controls.

[13] = tested on: E. coli ATCC 25922; test: Cytoplasmic membrane depolarization, DiSC3-5; assay type: cell-based, Escherichia coli
Description: DiSC3-5 was used to measure the change in plasma membrane potential after peptide treatment. E. coli ATCC 25922 (OD600 = 0.05) was incubated with 0.4 µM DiSC3-5 and 100 mM K^+ in 5 mM HEPES buffer (containing 20 mM glucose, pH 7.4) until the fluorescence decreased stably. […] A fluorescence spectrophotometer (Infinite 200 pro, Tecan, China) was used to record the fluorescence values at an excitation light wavelength of 622 nm and emission light wavelength of 670 nm.

[14] = tested on: E. coli ATCC 25922; test: Transmission electron microscopy (TEM); assay type: cell-based, Escherichia coli; conditions: 1/2 × MIC (1 μM), 37 °C 1 h
Description: E. coli ATCC 25922 was cultured to the logarithmic growth phase and centrifuged to obtain the bacteria. The bacteria were resuspended twice in 0.01 M PBS (pH 7.4) and diluted to OD600 = 0.3. The rLG and bacteria were mixed to a final concentration of 1/2 × MIC (1 μM), and the bacteria without peptide were used as a control. Both samples were incubated at 37 °C for 1 h. The incubated sample was centrifuged at 2500×g for 5 min and washed three times with 0.01 M PBS. Two milliliters of 2.5% glutaraldehyde buffer was added to the bacterial pellet, and the suspension was gently blown and fixed at 4 °C overnight. The cells were washed with 0.01 M PBS and fixed in 1% osmate buffer for 1 h. Then, different concentrations of ethanol were used for gradient dehydration (50%, 70%, 85%, 95% and 100%). Finally, the sample was prepared into ultrathin sections through the process of soaking and embedding, and a Hitachi H-7650 TEM (Hitachi, Japan) was used for observation.

[15] = tested on: E. coli ATCC 25922; assay type: cell-based, Escherichia coli; conditions: in the absence of physiological salts and serum

Sequence: FKRIVQRIKRFLRGGGGSFKRIVQRIKRFLR [rLG, recombinant LG expressed in P. pastoris as 6 × His-SUMO-LG and released by SUMO protease]
- MIC [1]: 1.22 ± 0.19 µM
- MIC [2]: 1.77 ± 0.19 µM
- MIC [3]: 3.78 ± 0.44 µM
- MIC [4]: 1.33 ± 0.25 µM
- MIC [5]: 4.44 ± 1.78 µM
- MIC [6]: 4.44 ± 1.78 µM
- MIC [7]: 2.00 ± 0.00 µM
- MIC [8]: 1.89 ± 0.11 µM
- MIC [9]: 1.89 ± 0.11 µM
- MIC under physiological salt concentration, FeCl3 ([10]; 4 µM FeCl3): 2 µM
- MIC under physiological salt concentration, NH4Cl ([10]; 6 µM NH4Cl): 2 µM
- MIC under physiological salt concentration, ZnCl2 ([10]; 8 µM ZnCl2): 2 µM
- MIC under physiological salt concentration, MgCl2 ([10]; 1 mM MgCl2): 4 µM
- MIC under physiological salt concentration, CaCl2 ([10]; 2 mM CaCl2): > 32 µM
- MIC under physiological salt concentration, KCl ([10]; 4.5 mM KCl): 2 µM
- MIC under physiological salt concentration, NaCl ([10]; 150 mM NaCl): 2 µM
- MIC under physiological salt concentration, GM ([10]; geometric mean of the MIC values in the seven salt solutions): 3.62 µM
- MIC under physiological salt concentration, Fold ([10]; increase of the MIC value (GM in salts) over the control without salts): 1.81
- hemolysis (blood cells destroyed) [11]: approximately 23%
- ability to damage or destroy the bacterial cell wall (NPN fluorescence) [12]: better than that of melittin
- plasma membrane potential (DiSC3-5 fluorescence intensity) ([13]; lowest tested concentration (1 µM)): caused a rapid increase in fluorescence intensity
- damage to plasma membrane potential compared with melittin (DiSC3-5) ([13]; rLG compared with 16 µM melittin): stronger than that of 16 µM melittin
- internal morphology by TEM [14]: the membrane of E. coli was destroyed, and the cell contents flowed out
- MIC, Control [15]: 2 µM

— paper PMC8305873, “Design and heterologous expression of a novel dimeric LL37 variant in Pichia pastoris” (Microbial Cell Factories, 2021)
